Test results as given in patent US20250311727A1, “SUBSTITUTED 2-AMINOAZINES AND SALTS THEREOF, AND USE THEREOF AS HERBICIDAL ACTIVE SUBSTANCES” (BAYER AKTIENGESELLSCHAFT, priority 2022, published 2025).

Experiments:
Format in all cases: in vivo
Polygonum convolvulus = assay: Pre-emergence herbicide efficacy at 80 g/ha, POLCO; conditions: scored visually after about 3 weeks vs untreated controls, 100% = plants have died
Source text: (§1) Unwanted plants/weeds: • ABUTH: Abutilon theophrasti • ALOMY: Alopecurus myosuroides • AMARE: Amaranthus retroflexus • DIGSA: Digitaria sanguinalis • ECHCG: Echinochloa crus-galli • KCHSC: Kochia scoparia • LOLRI: Lolium rigidum • MATIN: Matricaria inodora • POAAN: Poa annua • POLCO: Polygonum convolvulus • SETVI: Setaria viridis • STEME: Stellaria media • VERPE: Veronica persica • VIOTR: Viola tricolor A. Post-Emergence Herbicidal Efficacy at 320 g/ha
(§2) Seeds of monocotyledonous and dicotyledonous weed plants and crop plants were placed in plastic or organic planting pots and covered with soil. The compounds of the invention, formulated in the form of wettable powders (WP) or as emulsion concentrates (EC), were then applied to the surface of the covering soil as aqueous suspension or emulsion with addition of 0.5% additive at a water application rate equivalent to 600 l/ha. After the treatment, the pots were placed in a greenhouse and kept under good growth conditions for the test plants. After about 3 weeks, the efficacy of the preparations was scored visually in comparison with untreated controls as percentages. For example, 100% activity=the plants have died, 0% activity=like control plants.
(§3) Tables D1 to D12 below show the effects of selected compounds of the general formula (I) according to Table 1 on various harmful plants and an application rate corresponding to 80 g/ha, which were obtained by the experimental procedure mentioned above.

Amaranthus retroflexus [1] = assay: Post-emergence herbicidal efficacy at 320 g/ha, AMARE; conditions: rated visually after about 3 weeks vs untreated controls, 100% = plants have died
Procedure, shortened: (§4)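 Visual % activity vs untreated controls, ~3 wk after spraying; 100% = plants dead, 0% = like control. Greenhouse pot plants in sandy loam, treated at one-leaf stage (2–3 wk post-sowing). WP/EC in water + 0.5% additive, 600 L/ha spray volume.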

Abutilon theophrasti [2] = assay: Post-emergence herbicidal efficacy at 80 g/ha, ABUTH; conditions: rated visually after about 3 weeks vs untreated controls, 100% = plants have died
Source text: as §1
(§5) Seeds of monocotyledonous and dicotyledonous weeds and crop plants were placed in sandy loam in plastic or organic planting pots, covered with soil and cultivated in a greenhouse under controlled growth conditions. 2 to 3 weeks after sowing, the test plants were treated at the one-leaf stage. The compounds of the invention, formulated in the form of wettable powders (WP) or as emulsion concentrates (EC), were then sprayed onto the green parts of the plants as aqueous suspension or emulsion with addition of 0.5% additive at a water application rate of 600 l/ha (converted). After the test plants had been kept in the greenhouse under optimum growth conditions for about 3 weeks, the activity of the preparations was rated visually in comparison to untreated controls. For example, 100% activity=the plants have died, 0% activity=like control plants.
(§6) Tables B1 to B11 below show the effects of selected compounds of the general formula (I) according to Table 1 on various harmful plants and an application rate corresponding to 80 g/ha, which were obtained by the experimental procedure mentioned above.

Veronica persica [3] = assay: Post-emergence herbicidal efficacy at 80 g/ha, VERPE; conditions: rated visually after about 3 weeks vs untreated controls, 100% = plants have died
Procedure, shortened: (§7)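 Foliar application at the one-leaf stage used wettable powder or emulsion concentrate formulations diluted in water with 0.5% additive (600 l/ha). Percent activity was estimated by eye after roughly 3 weeks in the greenhouse, relative to untreated controls.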

Abutilon theophrasti [4] = assay: Pre-emergence herbicide efficacy at 320 g/ha, ABUTH; conditions: scored visually after about 3 weeks vs untreated controls, 100% = plants have died
Source text: as §1
(§8) Seeds of mono- and dicotyledonous weed plants were placed in plastic pots in sandy loam soil (doubly sown with one species each of mono- or dicotyledonous weed plants per pot) and covered with soil. The compounds of the invention, formulated in the form of wettable powders (WP) or as emulsion concentrates (EC), were then applied to the surface of the covering soil as aqueous suspension or emulsion with addition of 0.5% additive at a water application rate of 600 litres per hectare (converted). After the treatment, the pots were placed in a greenhouse and kept under good growth conditions for the test plants. After about 3 weeks, the efficacy of the preparations was scored visually in comparison with untreated controls as percentages.
(§9) For example, 100% activity=the plants have died, 0% activity=like control plants.
(§10) Tables C1 to C12 below show the effects of selected compounds of the general formula (I) according to Table 1 on various harmful plants and at an application rate corresponding to 320 g/ha, which were obtained by the trial procedure specified above.

Alopecurus myosuroides [5] = assay: Post-emergence herbicidal efficacy at 80 g/ha, ALOMY; conditions: rated visually after about 3 weeks vs untreated controls, 100% = plants have died
Source text: as §1, §5, §6

Echinochloa crus-galli [6] = assay: Pre-emergence herbicide efficacy at 320 g/ha, ECHCG; conditions: scored visually after about 3 weeks vs untreated controls, 100% = plants have died
Source text: as §1, §8, §9, §10

Setaria viridis [7] = assay: Post-emergence herbicidal efficacy at 320 g/ha, SETVI; conditions: rated visually after about 3 weeks vs untreated controls, 100% = plants have died
Source text: as §1
(§11) Seeds of mono- and dicotyledonous weed plants were placed in plastic pots in sandy loam soil (doubly sown with in each case one species of mono- or dicotyledonous weed plants per pot), covered with soil and cultivated in a greenhouse under controlled growth conditions. 2 to 3 weeks after sowing, the test plants were treated at the one-leaf stage. The compounds of the invention, formulated in the form of wettable powders (WP) or as emulsion concentrates (EC), were applied to the green parts of the plants as aqueous suspension or emulsion with addition of 0.5% additive at a water application rate equivalent to 600 litres per hectare. After the test plants had been kept in the greenhouse under optimum growth conditions for about 3 weeks, the activity of the preparations was rated visually in comparison to untreated controls.
as §9
(§12) Tables A1 to A10 below show the effects of selected compounds of the general formula (I) according to Table 1 on various harmful plants and at an application rate corresponding to 320 g/ha, which were obtained by the trial procedure specified above.

Poa annua = assay: Pre-emergence herbicide efficacy at 320 g/ha, POAAN; conditions: scored visually after about 3 weeks vs untreated controls, 100% = plants have died
Source text: as §1, §8, §9, §10

Amaranthus retroflexus [8] = assay: Pre-emergence herbicide efficacy at 320 g/ha, AMARE; conditions: scored visually after about 3 weeks vs untreated controls, 100% = plants have died
Procedure, shortened: (§13)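 Pre-emergence soil-surface spray of WP or EC formulation in water at 600 L/ha with 0.5% additive, over seeds covered in sandy loam. Scoring visual, ~3 weeks, % of untreated.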

Amaranthus retroflexus [9] = assay: Post-emergence herbicidal efficacy at 80 g/ha, AMARE; conditions: rated visually after about 3 weeks vs untreated controls, 100% = plants have died
Procedure, shortened: as §7

Alopecurus myosuroides [10] = assay: Pre-emergence herbicide efficacy at 320 g/ha, ALOMY; conditions: scored visually after about 3 weeks vs untreated controls, 100% = plants have died
Source text: as §1, §8, §9, §10

Veronica persica [11] = assay: Post-emergence herbicidal efficacy at 320 g/ha, VERPE; conditions: rated visually after about 3 weeks vs untreated controls, 100% = plants have died
Procedure, shortened: as §4

Setaria viridis [12] = assay: Pre-emergence herbicide efficacy at 80 g/ha, SETVI
Source text: as §1, §2, §3

Kochia scoparia [13] = assay: Pre-emergence herbicide efficacy at 320 g/ha, KCHSC; conditions: scored visually after about 3 weeks vs untreated controls, 100% = plants have died
Procedure, shortened: as §13

Viola tricolor [14] = assay: Pre-emergence herbicide efficacy at 80 g/ha, VIOTR
Source text: as §1, §2, §3

Digitaria sanguinalis [15] = assay: Pre-emergence herbicide efficacy at 320 g/ha, DIGSA; conditions: scored visually after about 3 weeks vs untreated controls, 100% = plants have died
Procedure, shortened: as §13

Alopecurus myosuroides [16] = assay: Post-emergence herbicidal efficacy at 320 g/ha, ALOMY; conditions: rated visually after about 3 weeks vs untreated controls, 100% = plants have died
Source text: as §1, §11, §9, §12

Veronica persica [17] = assay: Pre-emergence herbicide efficacy at 320 g/ha, VERPE; conditions: scored visually after about 3 weeks vs untreated controls, 100% = plants have died
Procedure, shortened: as §13

Setaria viridis [18] = assay: Pre-emergence herbicide efficacy at 320 g/ha, SETVI; conditions: scored visually after about 3 weeks vs untreated controls, 100% = plants have died
Procedure, shortened: as §13

Kochia scoparia [19] = assay: Post-emergence herbicidal efficacy at 320 g/ha, KCHSC; conditions: rated visually after about 3 weeks vs untreated controls, 100% = plants have died
Procedure, shortened: as §4

Digitaria sanguinalis [20] = assay: Pre-emergence herbicide efficacy at 80 g/ha, DIGSA; conditions: scored visually after about 3 weeks vs untreated controls, 100% = plants have died
Source text: as §1, §2, §3

Viola tricolor [21] = assay: Post-emergence herbicidal efficacy at 80 g/ha, VIOTR; conditions: rated visually after about 3 weeks vs untreated controls, 100% = plants have died
Source text: as §1, §5, §6

Echinochloa crus-galli [22] = assay: Post-emergence herbicidal efficacy at 320 g/ha, ECHCG; conditions: rated visually after about 3 weeks vs untreated controls, 100% = plants have died
Source text: as §1, §11, §9, §12

Stellaria media [23] = assay: Post-emergence herbicidal efficacy at 320 g/ha, STEME; conditions: rated visually after about 3 weeks vs untreated controls, 100% = plants have died
Procedure, shortened: as §4

Abutilon theophrasti [24] = assay: Post-emergence herbicidal efficacy at 320 g/ha, ABUTH; conditions: rated visually after about 3 weeks vs untreated controls, 100% = plants have died
Procedure, shortened: as §4

Stellaria media [25] = assay: Pre-emergence herbicide efficacy at 320 g/ha, STEME; conditions: scored visually after about 3 weeks vs untreated controls, 100% = plants have died
Procedure, shortened: as §13

Amaranthus retroflexus [26] = assay: Pre-emergence herbicide efficacy at 80 g/ha, AMARE; conditions: scored visually after about 3 weeks vs untreated controls, 100% = plants have died
Source text: as §1, §2, §3

Cc1cnc(Nc2cccc(F)c2-c2cc(C(F)F)no2)nc1 [Example 1-36]
Pre-emergence efficacy at 80 g/ha against POLCO in % (Polygonum convolvulus): 90% | Post-emergence efficacy at 320 g/ha against AMARE in % (Amaranthus retroflexus [1]): 100% | Post-emergence efficacy at 80 g/ha against ABUTH in % (Abutilon theophrasti [2]): 100% | Post-emergence efficacy at 80 g/ha against VERPE in % (Veronica persica [3]): 80% | Pre-emergence efficacy at 320 g/ha against ABUTH in % (Abutilon theophrasti [4]): 100% | Post-emergence efficacy at 80 g/ha against ALOMY in % (Alopecurus myosuroides [5]): 80% | Pre-emergence efficacy at 320 g/ha against ECHCG in % (Echinochloa crus-galli [6]): 100% | Post-emergence efficacy at 320 g/ha against SETVI in % (Setaria viridis [7]): 100% | Pre-emergence efficacy at 320 g/ha against POAAN in % (Poa annua): 100% | Pre-emergence efficacy at 320 g/ha against AMARE in % (Amaranthus retroflexus [8]): 100% | Post-emergence efficacy at 80 g/ha against AMARE in % (Amaranthus retroflexus [9]): 90% | Pre-emergence efficacy at 320 g/ha against ALOMY in % (Alopecurus myosuroides [10]): 100% | Post-emergence efficacy at 320 g/ha against VERPE in % (Veronica persica [11]): 100% | Pre-emergence efficacy against SETVI (Setaria viridis [12]): 90% | Pre-emergence efficacy at 320 g/ha against KCHSC in % (Kochia scoparia [13]): 100% | Pre-emergence efficacy against VIOTR (Viola tricolor [14]): 80% | Pre-emergence efficacy at 320 g/ha against DIGSA in % (Digitaria sanguinalis [15]): 100% | Post-emergence efficacy at 320 g/ha against ALOMY in % (Alopecurus myosuroides [16]): 100% | Pre-emergence efficacy at 320 g/ha against VERPE in % (Veronica persica [17]): 100% | Pre-emergence efficacy at 320 g/ha against SETVI in % (Setaria viridis [18]): 100% | Post-emergence efficacy at 320 g/ha against KCHSC in % (Kochia scoparia [19]): 100% | Pre-emergence efficacy at 80 g/ha against DIGSA in % (Digitaria sanguinalis [20]): 90% | Post-emergence efficacy at 80 g/ha against VIOTR in % (Viola tricolor [21]): 100% | Post-emergence efficacy at 320 g/ha against ECHCG in % (Echinochloa crus-galli [22]): 100% | Post-emergence efficacy at 320 g/ha against STEME in % (Stellaria media [23]): 100% | Post-emergence efficacy at 320 g/ha against ABUTH in % (Abutilon theophrasti [24]): 100% | Pre-emergence efficacy at 320 g/ha against STEME in % (Stellaria media [25]): 100% | Pre-emergence efficacy at 80 g/ha against AMARE in % (Amaranthus retroflexus [26]): 90%
